The target in one series is T1, HCMV polymerase (Human cytomegalovirus, UniProt P08546).
T1 construct: made in house; host or cells: recombinant baculovirus-infected SF-9 cells
As to the kind of experiment: HCMV polymerase scintillation proximity assay (SPA). Type of series: biochemical. Here is the method:
The HCMV polymerase assay is performed using a scintillation proximity assay (SPA) as described in several references, such as N. D. Cook, et al., Pharmaceutical Manufacturing International, pages 49-53 (1992); KY Takeuchi, Laboratory Practice, September issue (1992); U.S. Pat. No. 4,568,649 (1986); which are incorporated by reference herein. Reactions are performed in 96-well plates. The assay is conducted in 100 yl volume with 5.4 mM HEPES (pH 7.5), 11.7 mM KCl, 4.5 mM MgCl2, 0.36 mg/ml BSA, and 90 nM ^3H-dTTP. Assays are run with and without CHAPS, (3-[(3-Cholamidopropyl)-dimethylammonio]-1-propane-sulfonate) at a final concentration of 2 mM. HCMV polymerase is diluted in enzyme dilution buffer containing 50% glycerol, 250 mM NaCl, 10 mM HEPES (pH 7.5), 100 μg/ml BSA, and 0.01% sodium azide. The HCMV polymerase, which is expressed in recombinant baculovirus-infected SF-9 cells and purified according to literature procedures, is added at 10% (or 10 μl) of the final reaction volume, i.e., 100 μl. Compounds are diluted in 50% DMSO and 10 μl are added to each well. Control wells contain an equivalent concentration of DMSO. Unless noted otherwise, reactions are initiated via the addition of 6 nM biotinylated poly(dA)-oligo(dT) template/primer to reaction mixtures containing the enzyme, substrate, and compounds of interest. Plates are incubated in a 25° C. or 37° C. H2O bath and terminated via the addition of 40 μl/reaction of 0.5 M EDTA (pH 8) per well. Reactions are terminated within the time-frame during which substrate incorporation is linear and varied depending upon the enzyme and conditions used, i.e., 30 min. for HCMV polymerase. Ten (10) μl of streptavidin-SPA beads (20 mg/ml in PBS/10% glycerol) are added following termination of the reaction. Plates are incubated 10 min. at 37° C., then equilibrated to room temperature, and counted on a Packard Topcount. Linear regressions are performed and IC50's are calculated using computer software.
A modified version of the above HCMV polymerase assay is performed as described above, but with the following changes: Compounds are diluted in 100% DMSO until final dilution into assay buffer. In the previous assay, compounds are diluted in 50% DMSO. 4.5 mM Dithiothreitol (DTT) is added to the polymerase buffer.
All results are listed as Polymerase IC50 ([…]) values. In Table 1, the term “n.d.” refers to activity data not determined.
Background: In a scintillation proximity assay essentially only radioactivity close to the scintillant gives light.

The next series has as its target HSV polymerase (Human herpesvirus 1, UniProt P04293). As to the kind of experiment: HSV polymerase assay (Table 1). The following applies: HSV polymerase; read-out: Polymerase IC50 HSV. Type of series: biochemical.
The next series addresses VZV polymerase (Varicella-zoster virus, UniProt P09252). As to the kind of experiment: VZV polymerase assay (Table 1). The following applies: VZV polymerase; read-out: Polymerase IC50 VZV. Type of series: biochemical.
The mark [1] stands for this setting: HCMV polymerase, SPA, read-out: Polymerase IC50 HCMV.

Broadly, the IC50 is the concentration at which inhibition is half-maximal. For orientation: melting point means the temperature, or range, at which the solid turns liquid.

Like-named read-outs stand apart in the source and are kept apart here.

Chain of HSV polymerase (P04293 whole entry): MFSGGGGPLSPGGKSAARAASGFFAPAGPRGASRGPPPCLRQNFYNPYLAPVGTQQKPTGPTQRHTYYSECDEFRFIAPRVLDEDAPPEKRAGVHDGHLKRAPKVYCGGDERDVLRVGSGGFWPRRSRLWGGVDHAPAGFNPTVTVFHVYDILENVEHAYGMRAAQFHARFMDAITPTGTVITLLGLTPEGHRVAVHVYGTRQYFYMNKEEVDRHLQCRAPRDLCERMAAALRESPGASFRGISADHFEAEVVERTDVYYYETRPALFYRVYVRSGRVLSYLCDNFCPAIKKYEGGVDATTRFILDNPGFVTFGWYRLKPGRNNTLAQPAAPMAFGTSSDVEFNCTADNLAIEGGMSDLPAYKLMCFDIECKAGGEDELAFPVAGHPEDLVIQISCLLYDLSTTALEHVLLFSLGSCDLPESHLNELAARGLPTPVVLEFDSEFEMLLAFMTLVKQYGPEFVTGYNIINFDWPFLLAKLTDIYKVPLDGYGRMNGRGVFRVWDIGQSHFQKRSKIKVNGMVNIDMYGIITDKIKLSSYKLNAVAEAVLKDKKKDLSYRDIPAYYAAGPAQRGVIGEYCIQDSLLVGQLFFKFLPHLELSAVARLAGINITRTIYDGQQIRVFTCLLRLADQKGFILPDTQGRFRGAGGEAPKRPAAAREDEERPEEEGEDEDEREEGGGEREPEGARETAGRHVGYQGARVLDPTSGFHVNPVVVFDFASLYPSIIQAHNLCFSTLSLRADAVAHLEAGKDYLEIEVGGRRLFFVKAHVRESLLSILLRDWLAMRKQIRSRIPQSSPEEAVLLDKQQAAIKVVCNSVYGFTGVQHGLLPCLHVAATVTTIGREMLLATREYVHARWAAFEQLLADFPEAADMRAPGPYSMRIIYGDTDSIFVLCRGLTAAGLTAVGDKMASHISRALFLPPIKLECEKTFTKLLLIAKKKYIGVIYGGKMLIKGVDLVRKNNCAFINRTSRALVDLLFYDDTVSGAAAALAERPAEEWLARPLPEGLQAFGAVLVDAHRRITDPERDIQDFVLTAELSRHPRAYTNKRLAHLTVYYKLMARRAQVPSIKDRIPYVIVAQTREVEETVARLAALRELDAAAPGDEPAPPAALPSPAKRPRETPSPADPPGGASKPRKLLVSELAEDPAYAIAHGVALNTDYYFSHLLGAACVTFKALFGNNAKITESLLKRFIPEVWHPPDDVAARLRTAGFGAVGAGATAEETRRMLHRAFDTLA
T1 sequence (P08546 whole entry): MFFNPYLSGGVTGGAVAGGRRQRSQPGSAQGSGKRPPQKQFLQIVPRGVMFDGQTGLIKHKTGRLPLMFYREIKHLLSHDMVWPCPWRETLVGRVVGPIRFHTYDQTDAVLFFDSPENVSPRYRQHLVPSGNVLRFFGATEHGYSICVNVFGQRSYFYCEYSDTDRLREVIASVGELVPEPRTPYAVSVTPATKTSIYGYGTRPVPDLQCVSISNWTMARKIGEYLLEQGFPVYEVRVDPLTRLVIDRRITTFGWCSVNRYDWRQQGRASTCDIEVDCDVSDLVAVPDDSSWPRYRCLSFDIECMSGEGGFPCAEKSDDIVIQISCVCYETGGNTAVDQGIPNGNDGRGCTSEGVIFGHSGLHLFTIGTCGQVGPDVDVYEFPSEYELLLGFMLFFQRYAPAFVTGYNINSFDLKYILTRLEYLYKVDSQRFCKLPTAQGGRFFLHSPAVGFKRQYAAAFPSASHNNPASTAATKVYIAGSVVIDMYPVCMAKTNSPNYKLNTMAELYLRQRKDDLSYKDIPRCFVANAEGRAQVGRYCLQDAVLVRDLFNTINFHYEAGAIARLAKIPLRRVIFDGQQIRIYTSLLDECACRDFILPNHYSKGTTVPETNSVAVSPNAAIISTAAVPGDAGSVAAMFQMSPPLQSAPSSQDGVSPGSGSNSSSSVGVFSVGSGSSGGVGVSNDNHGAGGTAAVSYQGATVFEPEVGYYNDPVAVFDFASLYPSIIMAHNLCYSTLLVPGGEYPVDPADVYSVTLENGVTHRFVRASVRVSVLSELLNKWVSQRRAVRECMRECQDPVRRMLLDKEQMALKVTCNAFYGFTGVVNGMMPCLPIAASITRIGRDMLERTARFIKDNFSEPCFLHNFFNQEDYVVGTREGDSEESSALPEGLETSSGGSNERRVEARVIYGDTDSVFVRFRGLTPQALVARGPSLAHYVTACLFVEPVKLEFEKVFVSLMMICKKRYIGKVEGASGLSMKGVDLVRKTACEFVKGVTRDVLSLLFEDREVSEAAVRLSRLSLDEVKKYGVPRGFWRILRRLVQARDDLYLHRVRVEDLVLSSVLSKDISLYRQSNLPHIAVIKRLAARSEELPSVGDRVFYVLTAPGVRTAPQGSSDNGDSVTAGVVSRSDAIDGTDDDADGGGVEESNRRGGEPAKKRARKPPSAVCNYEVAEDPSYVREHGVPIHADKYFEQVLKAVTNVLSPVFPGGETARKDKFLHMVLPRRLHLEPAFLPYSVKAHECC
Chain of VZV polymerase (P09252 whole entry): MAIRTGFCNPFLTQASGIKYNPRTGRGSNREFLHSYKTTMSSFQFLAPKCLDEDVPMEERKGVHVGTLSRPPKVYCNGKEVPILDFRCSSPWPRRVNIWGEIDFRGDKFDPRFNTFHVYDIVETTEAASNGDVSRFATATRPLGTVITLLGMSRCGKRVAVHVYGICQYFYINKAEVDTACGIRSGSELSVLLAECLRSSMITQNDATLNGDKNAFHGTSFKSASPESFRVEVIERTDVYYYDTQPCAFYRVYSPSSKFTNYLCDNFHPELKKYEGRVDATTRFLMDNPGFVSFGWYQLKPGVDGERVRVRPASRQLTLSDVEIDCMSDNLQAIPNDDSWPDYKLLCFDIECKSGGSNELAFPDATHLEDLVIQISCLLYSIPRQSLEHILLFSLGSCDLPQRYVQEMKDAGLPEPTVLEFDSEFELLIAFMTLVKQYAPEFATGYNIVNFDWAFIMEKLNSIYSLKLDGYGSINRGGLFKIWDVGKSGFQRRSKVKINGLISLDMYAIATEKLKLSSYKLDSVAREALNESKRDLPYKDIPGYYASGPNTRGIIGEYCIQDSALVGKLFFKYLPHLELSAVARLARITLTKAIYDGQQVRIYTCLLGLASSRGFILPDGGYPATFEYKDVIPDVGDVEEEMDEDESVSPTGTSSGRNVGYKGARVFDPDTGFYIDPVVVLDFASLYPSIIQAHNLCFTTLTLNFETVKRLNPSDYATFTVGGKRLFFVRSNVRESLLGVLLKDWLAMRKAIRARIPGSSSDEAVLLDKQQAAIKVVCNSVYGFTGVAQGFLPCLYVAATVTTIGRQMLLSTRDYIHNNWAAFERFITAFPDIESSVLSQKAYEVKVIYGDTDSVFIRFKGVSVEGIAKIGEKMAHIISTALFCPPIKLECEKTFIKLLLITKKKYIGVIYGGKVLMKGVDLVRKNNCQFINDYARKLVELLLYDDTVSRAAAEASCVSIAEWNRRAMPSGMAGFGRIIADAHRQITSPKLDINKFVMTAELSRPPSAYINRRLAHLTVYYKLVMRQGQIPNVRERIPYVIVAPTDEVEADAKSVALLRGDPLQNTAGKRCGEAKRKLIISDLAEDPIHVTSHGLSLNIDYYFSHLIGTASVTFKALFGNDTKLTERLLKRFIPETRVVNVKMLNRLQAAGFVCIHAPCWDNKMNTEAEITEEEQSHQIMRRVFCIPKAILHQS

Turning to `CN(Cc1cc2c(=O)c(C(=O)NCc3ccc(Cl)cc3)cn(C)c2s1)CC(O)c1ccc[nH]1` (racemic) [Example 7, rac-N-(4-Chlorobenzyl)-2-(((2-hydroxy-2-(1H-pyrrol-2-yl)ethyl)(methyl)amino)-methyl)-7-methyl-4-oxo-4,7-dihydrothieno[2,3-b]pyridine-5-carboxamide], the melting point was 169 to 172 °C (dec.). Moreover, the IC50 on HCMV polymerase (setting [1]) turned out to be 300 nM. The 50% inhibitory concentration (IC50) on HSV polymerase turned out to be 980 nM. The IC50 at VZV polymerase turned out to be 330 nM.
The compound `CN(Cc1cc2c(=O)c(C(=O)NCc3ccc(Cl)cc3)cn(C)c2s1)CC(O)c1ccoc1` (racemic) [Example 4, rac-N-(4-Chlorobenzyl)-2-(((2-(3-furyl)-2-hydroxyethyl)(methyl)amino)methyl)-7-methyl-4-oxo-4,7-dihydrothieno[2,3-b]pyridine-5-carboxamide] returned a melting point of 151 to 153 °C. In addition, on HCMV polymerase (setting [1]), the IC50 worked out at 250 nM. Further, on HSV polymerase, the IC50 was determined as 840 nM. Besides, the IC50 at VZV polymerase is 390 nM.
For the compound `CN(Cc1cc2c(=O)c(C(=O)NCc3ccc(Cl)cc3)cn(C)c2s1)CC(O)c1nccs1` (racemic) [Example 16, rac-N-(4-Chlorobenzyl)-2-(((2-hydroxy-2-(1,3-thiazol-2-yl)ethyl)(methyl)amino)-methyl)-7-methyl-4-oxo-4,7-dihydrothieno[2,3-b]pyridine-5-carboxamide], the melting point lay within 129 to 133 °C. On HCMV polymerase, this compound displayed an IC50 of 200 nM. Moreover, on HSV polymerase, the IC50 stood at 450 nM. Also, the concentration for half-maximal inhibition (IC50) at VZV polymerase is 190 nM.

Source of the values: patent US20050049245A1, “Heteroaryl-ethanolamine derivatives as antiviral agents” (priority 2002, published 2005).
